“And” between values parts separate entries of the source, which are not always exact repeats. Equal entries are not always repeated. Toxic doses and inconclusive results are not listed.
Test system: P388 leukemia ip, CD2F1 mice, survival T/C
Test: NCI In Vivo Anticancer Drug Screen. Data for tumor model P388 Leukemia (intraperitoneal) in CD2F1 (CDF1) mice
Settings: endpoint: median survival time, higher = longer survival
How it was run: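 Mice carrying the transplanted tumor received test compound or vehicle. Survival was recorded in each group, and the value is the treated-group measurement divided by that of the vehicle-treated control group.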

[1] = dose: 50.0 mg/kg/injection, schedule: Q04DX003 (ip), vehicle: other
[2] = dose: 60.0 mg/kg/injection, schedule: Q01DX005 (ip), vehicle: saline with Tween-80
[3] = dose: 120.0 mg/kg/injection, schedule: Q01DX005 (ip), vehicle: saline with Tween-80
[4] = dose: 240.0 mg/kg/injection, schedule: Q01DX005 (ip), vehicle: saline with Tween-80
[5] = dose: 100.0 mg/kg/injection, schedule: Q01DX009 (ip), vehicle: saline with Tween-80
[6] = dose: 200.0 mg/kg/injection, schedule: Q01DX009 (ip), vehicle: saline with Tween-80
[7] = dose: 400.0 mg/kg/injection, schedule: Q01DX009 (ip), vehicle: saline with Tween-80
[8] = dose: 50.0 mg/kg/injection, schedule: Q01DX005 (ip), vehicle: Klucel (hydroxypropylcellulose) (HPC)
[9] = dose: 100.0 mg/kg/injection, schedule: Q01DX005 (ip), vehicle: Klucel (hydroxypropylcellulose) (HPC)
[10] = dose: 200.0 mg/kg/injection, schedule: Q01DX005 (ip), vehicle: Klucel (hydroxypropylcellulose) (HPC)
[11] = dose: 100.0 mg/kg/injection, schedule: Q01DX001 (ip), vehicle: Klucel (hydroxypropylcellulose) (HPC)
[12] = dose: 200.0 mg/kg/injection, schedule: Q01DX001 (ip), vehicle: Klucel (hydroxypropylcellulose) (HPC)
[13] = dose: 25.0 mg/kg/injection, schedule: Q01DX005 (ip), vehicle: Klucel (hydroxypropylcellulose) (HPC)
[14] = dose: 50.0 mg/kg/injection, schedule: Q04DX003 (ip), vehicle: saline with Tween-80
[15] = dose: 100.0 mg/kg/injection, schedule: Q04DX003 (ip), vehicle: saline with Tween-80
[16] = dose: 50.0 mg/kg/injection, schedule: Q01DX005 (ip), vehicle: saline with Tween-80
[17] = dose: 100.0 mg/kg/injection, schedule: Q01DX005 (ip), vehicle: saline with Tween-80
[18] = dose: 200.0 mg/kg/injection, schedule: Q01DX005 (ip), vehicle: saline with Tween-80

O=C(Cc1cc2c(cc1Br)OCO2)NCCc1ccc2c(c1)OCO2
T/C (dose: 12.5 mg/kg/injection, schedule: Q01DX001 (ip), vehicle: saline + alcohol): 99 % of control
T/C (dose: 25.0 mg/kg/injection, schedule: Q01DX001 (ip), vehicle: saline + alcohol): 98 % of control
T/C (dose: 50.0 mg/kg/injection, schedule: Q01DX001 (ip), vehicle: saline + alcohol): 105 % of control

Cc1ccc2c(c1)C1(C)OC(C=CC1=O)O2 (stereo not given)
T/C (dose: 25.0 mg/kg/injection, schedule: Q04DX003 (ip), vehicle: Klucel (hydroxypropylcellulose) (HPC)): 99 % of control and 119 % of control
T/C (dose: 50.0 mg/kg/injection, schedule: Q04DX003 (ip), vehicle: Klucel (hydroxypropylcellulose) (HPC)): 98 % of control
T/C (dose: 100.0 mg/kg/injection, schedule: Q04DX003 (ip), vehicle: Klucel (hydroxypropylcellulose) (HPC)): 123 % of control and 97 % of control
T/C (dose: 200.0 mg/kg/injection, schedule: Q04DX003 (ip), vehicle: Klucel (hydroxypropylcellulose) (HPC)): 113 % of control

Nc1nc2c(c(=O)[nH]1)N(C(=O)c1ccc(S(=O)(=O)F)cc1)C(CNc1ccc(C(=O)NC(CCC(=O)O)C(=O)O)cc1)CN2 (stereo not given)
T/C [1]: 104 % of control
T/C (dose: 100.0 mg/kg/injection, schedule: Q04DX003 (ip), vehicle: other): 104 % of control
T/C (dose: 200.0 mg/kg/injection, schedule: Q04DX003 (ip), vehicle: other): 113 % of control

O=C1c2ccccc2S(=O)(=O)CC12OC2c1ccc(Cl)cc1 (stereo not given)
T/C (dose: 100.0 mg/kg/injection, schedule: Q04DX002 (ip), vehicle: saline with Tween-80): 88 % of control
T/C (dose: 200.0 mg/kg/injection, schedule: Q04DX002 (ip), vehicle: saline with Tween-80): 88 % of control
T/C (dose: 400.0 mg/kg/injection, schedule: Q04DX002 (ip), vehicle: saline with Tween-80): 94 % of control

N#Cc1c2c(c(Cl)n3c1nc1ccccc13)CCC2
T/C [2]: 100 % of control
T/C [3]: 91 % of control
T/C [4]: 91 % of control

Cc1cc(Br)ccc1N
T/C [5]: 110 % of control
T/C [6]: 110 % of control
T/C [7]: 105 % of control

O=S(=O)(Nc1ccccn1)c1ccc(NC2OC(CO)C(O)C(O)C2O)cc1 (stereo not given)
T/C (dose: 50.0 mg/kg/injection, schedule: Q01DX005 (ip), vehicle: saline): 103 % of control
T/C (dose: 100.0 mg/kg/injection, schedule: Q01DX005 (ip), vehicle: saline): 98 % of control
T/C (dose: 200.0 mg/kg/injection, schedule: Q01DX005 (ip), vehicle: saline): 103 % of control

COC(=O)C1(C(C)C(=O)c2ccc(Cl)cc2)NC(=S)NC(=O)C1C#N (stereo not given)
T/C (dose: 60.0 mg/kg/injection, schedule: Q01DX005 (ip), vehicle: saline): 104 % of control
T/C (dose: 120.0 mg/kg/injection, schedule: Q01DX005 (ip), vehicle: saline): 106 % of control
T/C (dose: 240.0 mg/kg/injection, schedule: Q01DX005 (ip), vehicle: saline): 108 % of control

Clc1ccc(N2C(c3ccccc3)=N[C@@H](N3CCCCC3)[C@@H]2N2CCCCC2)cc1
T/C [8]: 102 % of control
T/C [9]: 98 % of control
T/C [10]: 93 % of control

O=C(CC1(O)C(=O)Nc2ccccc21)c1cccc([N+](=O)[O-])c1 (stereo not given)
T/C (dose: 60.0 mg/kg/injection, schedule: Q01DX005 (ip), vehicle: Klucel (hydroxypropylcellulose) (HPC)): 97 % of control
T/C (dose: 120.0 mg/kg/injection, schedule: Q01DX005 (ip), vehicle: Klucel (hydroxypropylcellulose) (HPC)): 103 % of control
T/C (dose: 240.0 mg/kg/injection, schedule: Q01DX005 (ip), vehicle: Klucel (hydroxypropylcellulose) (HPC)): 99 % of control

CC(C)(OCc1ccccc1)c1ccccc1[P+](C)(c1ccccc1)c1ccccc1
T/C [11]: 109 % of control
T/C [12]: 113 % of control

CCN(CC)CCN(C(=O)C1c2ccccc2Oc2ccccc21)c1ccccc1
T/C (dose: 12.5 mg/kg/injection, schedule: Q01DX005 (ip), vehicle: Klucel (hydroxypropylcellulose) (HPC)): 106 % of control
T/C [13]: 100 % of control
T/C [8]: 100 % of control and 94 % of control

COc1ccc2c(c1OC(C)=O)-c1cc(OC(C)=O)cc3c1C(C2)N(C(=O)CN(CCCl)CCCl)CC3 (stereo not given)
T/C (dose: 6.25 mg/kg/injection, schedule: Q04DX003 (ip), vehicle: other): 150 % of control
T/C (dose: 12.5 mg/kg/injection, schedule: Q04DX003 (ip), vehicle: other): 170 % of control
T/C (dose: 25.0 mg/kg/injection, schedule: Q04DX003 (ip), vehicle: DMSO): 170 % of control
T/C (dose: 25.0 mg/kg/injection, schedule: Q04DX003 (ip), vehicle: other): 185 % of control
T/C (dose: 50.0 mg/kg/injection, schedule: Q04DX003 (ip), vehicle: DMSO): 94 % of control
T/C [1]: 95 % of control

CN(C)c1ccc(/C=C(/C#N)c2ccc(Cl)cc2)cc1
T/C [14]: 97 % of control
T/C [15]: 92 % of control
T/C (dose: 200.0 mg/kg/injection, schedule: Q04DX003 (ip), vehicle: saline with Tween-80): 92 % of control
T/C (dose: 400.0 mg/kg/injection, schedule: Q04DX003 (ip), vehicle: saline with Tween-80): 92 % of control

CN(C)C(C#C[Si](C)(C)C)CO (stereo not given)
T/C (dose: 100.0 mg/kg/injection, schedule: Q04DX003 (ip), vehicle: saline): 104 % of control
T/C (dose: 200.0 mg/kg/injection, schedule: Q04DX003 (ip), vehicle: saline): 100 % of control
T/C (dose: 400.0 mg/kg/injection, schedule: Q04DX003 (ip), vehicle: saline): 97 % of control

COc1ccc(C(C)c2cc3c(cc2OC)OCO3)cc1OC (stereo not given)
T/C (dose: 50.0 mg/kg/injection, schedule: Q01DX005 (ip), vehicle: distilled water + Tween-80): 99 % of control
T/C (dose: 100.0 mg/kg/injection, schedule: Q01DX005 (ip), vehicle: distilled water + Tween-80): 98 % of control
T/C (dose: 200.0 mg/kg/injection, schedule: Q01DX005 (ip), vehicle: distilled water + Tween-80): 100 % of control

CC1C/C(=C\N=[N+]=[N-])C(=O)O1 (stereo not given)
T/C (dose: 15.0 mg/kg/injection, schedule: Q01DX005 (ip), vehicle: saline with Tween-80): 107 % of control
T/C (dose: 30.0 mg/kg/injection, schedule: Q01DX005 (ip), vehicle: saline with Tween-80): 105 % of control
T/C [2]: 105 % of control and 94 % of control

CCOC(=O)c1ccc(NC(=O)Oc2ccccc2C(=O)OC)cc1
T/C [2]: 100 % of control
T/C [3]: 100 % of control
T/C [4]: 95 % of control

C=C(C)C1Cc2cc(C(C)=O)c(O)c(OC)c2O1 (stereo not given)
T/C [13]: 101 % of control
T/C [8]: 108 % of control
T/C [9]: 97 % of control
T/C [10]: 99 % of control

O=c1cc(O)nc2nc(-c3ccccc3)c(-c3ccccc3)nn12
T/C [8]: 101 % of control
T/C [9]: 93 % of control
T/C [10]: 93 % of control

Brc1ccc(Nc2c3ccccc3nc3ccccc23)cc1
T/C [14]: 95 % of control
T/C [15]: 100 % of control

O=c1c(Cl)c2cc3c(cc2c2ccccc12)nc1ccccc1n3-c1ccccc1
T/C (dose: 400.0 mg/kg/injection, schedule: Q01DX001 (ip), vehicle: saline with Tween-80): 89 % of control

OC1N2CCSC2=NC1(c1ccccc1)c1ccccc1 (stereo not given)
T/C (dose: 18.75 mg/kg/injection, schedule: Q04DX003 (ip), vehicle: Klucel (hydroxypropylcellulose) (HPC)): 107 % of control
T/C (dose: 37.5 mg/kg/injection, schedule: Q04DX003 (ip), vehicle: Klucel (hydroxypropylcellulose) (HPC)): 95 % of control
T/C (dose: 75.0 mg/kg/injection, schedule: Q04DX003 (ip), vehicle: Klucel (hydroxypropylcellulose) (HPC)): 100 % of control
T/C (dose: 150.0 mg/kg/injection, schedule: Q04DX003 (ip), vehicle: Klucel (hydroxypropylcellulose) (HPC)): 110 % of control
T/C (dose: 300.0 mg/kg/injection, schedule: Q04DX003 (ip), vehicle: Klucel (hydroxypropylcellulose) (HPC)): 93 % of control

Cc1ccc(/C(=N/NS(=O)(=O)c2ccc(C)cc2)C(C)c2ccccc2)cc1 (stereo not given)
T/C [11]: 99 % of control
T/C [12]: 100 % of control
T/C (dose: 400.0 mg/kg/injection, schedule: Q01DX001 (ip), vehicle: Klucel (hydroxypropylcellulose) (HPC)): 99 % of control

c1ccc(-c2nc3ccccc3c3ccccc23)cc1
T/C [16]: 101 % of control
T/C [17]: 113 % of control
T/C [18]: 102 % of control

C=CCOC(N)=O
T/C [5]: 100 % of control
T/C [6]: 101 % of control
T/C [7]: 101 % of control

C=C(Cl)/C=N/C(=O)NC(O)C(=C)Cl (stereo not given)
T/C [16]: 93 % of control
T/C [17]: 96 % of control
T/C [18]: 93 % of control

Source: PubChem BioAssay AID330 (DTP/NCI, 2004)
